Columns and labels:
Assay in all cases: biochemical
[1] = target: T1, Nuclear receptor ROR-gamma (Homo sapiens, UniProt P51449)
T1 sequence (P51449 whole entry): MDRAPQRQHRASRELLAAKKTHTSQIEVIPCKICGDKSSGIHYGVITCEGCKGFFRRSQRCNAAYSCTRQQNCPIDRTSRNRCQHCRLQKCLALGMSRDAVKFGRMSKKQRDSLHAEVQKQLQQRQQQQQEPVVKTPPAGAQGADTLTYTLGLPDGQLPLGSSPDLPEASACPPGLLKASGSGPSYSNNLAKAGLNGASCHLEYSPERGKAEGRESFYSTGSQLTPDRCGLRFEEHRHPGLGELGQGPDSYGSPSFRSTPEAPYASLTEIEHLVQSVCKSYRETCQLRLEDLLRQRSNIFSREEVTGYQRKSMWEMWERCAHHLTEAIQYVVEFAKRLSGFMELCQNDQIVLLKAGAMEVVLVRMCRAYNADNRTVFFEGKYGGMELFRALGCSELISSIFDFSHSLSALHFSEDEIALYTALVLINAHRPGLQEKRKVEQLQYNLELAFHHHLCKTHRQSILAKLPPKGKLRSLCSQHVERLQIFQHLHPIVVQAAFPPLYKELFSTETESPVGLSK
Description: Allosteric inhibition of N-terminal his6-tagged human recombinant RORgamma LBD (261 to 518 residues) expressed in Sf9 insect cells assessed as inhibition constant incubated for 30 mins by fluorescence polarization assay

[2] = target: T1, Nuclear receptor ROR-gamma; remark: listed apart in the source
Description: Allosteric inhibition of N-terminal his6-tagged human recombinant RORgamma LBD (261 to 518 residues) expressed in Sf9 insect cells incubated for 30 mins by fluorescence polarization assay

[3] = target: T1, Nuclear receptor ROR-gamma; remark: listed apart in the source
Description: Binding affinity to N-terminal his6-tagged human recombinant RORgamma LBD (261 to 518 residues) expressed in Sf9 insect cells assessed as dissociation constant incubated for 30 mins by fluorescence polarization assay

[4] = target: T1, Nuclear receptor ROR-gamma; remark: listed apart in the source
Description: Binding affinity to N-terminal his6-tagged human recombinant RORgamma LBD (261 to 518 residues) expressed in Sf9 insect cells assessed as dissociation constant by SPR analysis

Compound	Ki [1]	IC50 [2]	Kd [3]	Kd [4]
O=C(O)c1ccc(-n2cc(C(=O)c3c(Cl)cccc3Cl)c3ccccc32)cc1	0.005 µM	0.009 µM	–	–
O=C(O)c1ccc(-n2cc(C(=O)c3c(Cl)cccc3C(F)(F)F)c3ccccc32)s1	0.91 µM	1.7 µM	–	–
Cc1csc(-n2cc(C(=O)c3c(Cl)cccc3Cl)c3ccccc32)c1	–	> 1000 µM	–	–
Cc1ccc(C(=O)c2cn(-c3ccc(C(=O)O)s3)c3ccccc23)cc1	42.7 µM	79.9 µM	–	–
Cc1cc(-n2cc(C(=O)c3c(Cl)cccc3Cl)c3ccccc32)sc1C(=O)O	1.7 µM	3.1 µM	–	–
O=C(O)c1ccc(-c2nn(C(=O)c3ccccc3)c3ccccc23)cc1	1.11 µM	–	–	–
Cc1cccc(C(=O)c2cn(-c3ccc(C(=O)O)s3)c3ccccc23)c1	79.8 µM	149 µM	–	–
O=C(O)c1ccc(-n2cc(C(=O)c3cccc(Cl)c3)c3ccccc32)s1	15.2 µM	28.5 µM	–	–
O=C(O)c1ccc(-n2cc(C(=O)c3ccccc3)c3ccccc32)s1	102 µM	19.3 µM	–	–
O=C(O)c1ccc(-c2nn(C(=O)c3c(Cl)cccc3C(F)(F)F)c3cc(C(=O)NCCOCCOCCNC(=S)Nc4ccc5c(c4)C(=O)OC54c5ccc(O)cc5Oc5cc(O)ccc54)ccc23)cc1	–	–	0.0517 µM	0.28 µM
Cc1ccccc1C(=O)c1cn(-c2ccc(C(=O)O)s2)c2ccccc12	17.6 µM	33 µM	–	–
O=C(O)c1ccc(-n2cc(C(=O)c3ccc(Cl)cc3)c3ccccc32)s1	21.3 µM	39.9 µM	–	–
O=C(O)c1ccc(-n2cc(C(=O)c3c(Cl)cccc3Cl)c3ccccc32)s1	0.51 µM	0.95 µM	–	–
O=C(O)c1ccc(-n2cc(C(=O)c3ccccc3Cl)c3ccccc32)s1	7.2 µM	13.5 µM	–	–

— ChEMBL document CHEMBL5528080, “Discovery of RORγ Allosteric Fluorescent Probes and Their Application: Fluorescence Polarization, Screening, and Bioimaging” (J Med Chem, 2024)
